# Where two headings read alike, the source gives them in different places.
# Key:
# [1] = tested on: Chlorella sp.
# Protocol: 100 mL volume cultures were prepared in 250 mL flasks, and cultured at a temperature of 25° C., a shaking frequency of 100 rpm, and a light intensity of 100 μM photon/m^2 s for 7 days (168 hours). The cultures were inoculated into two times BG-11 culture media at a cell density of 1.12 g/L. The different treatments of sodium acetate consisted of concentrations of 0, 2.5, 5, 7.5, 10, 20, 30, and 40 g/L. Samples were taken every 24 hours to measure the cell dry weights (g/L) of the cultures.
# [2] = tested on: live bacteria in mixotrophic culture of Chlorella; conditions: for Total live bacteria count: pH lowered to 3.5 with hydrochloric acid
# Protocol: The 2 L sample was split into equal 1 L cultures in flasks, and incubated at 25° C. and 100 rpm (shaking) for 24 hours to allow metabolization of any residual acetate in the cultures. The two cultures were then blended together and then separated into equal 1 L cultures to ensure homogeneity in the two cultures. […] Samples were taken from both cultures to quantify the initial live bacteria count and subsequent counts using aerobic colony forming units (CFU) obtained from plate counts utilizing Petrifilm available from 3M (St. Paul, Minn.).
# [3] = in water; cited from earlier work
# [4] = tested on: Chlorella sp.; conditions: culture at 1,029 mg/L acetate, pH 3.5 for 15 minutes, returned to 7.5 with 2 M NaOH
# Protocol: The pH treated culture samples were maintained at the culture pH of 3.5 for 15 minutes before returning the culture pH to 7.5 by adding 2 M NaOH.
# The pH treatment was applied directly into the culture, without previous concentration or subsequent dilution through inoculation into a fresh media. All cultures were incubated with shaking at 100 rpm in 5% carbon dioxide and 25° C. […] 100 μM photon/m^2 s of light was also provided to create mixotrophic growth conditions. The cultures were monitored for 4 days (96 hours with dry weight samples taken at 0, 48, and 96 hours). Residual acetate analyses were carried at the end of the experiment.
# [5] = tested on: Chlorella sp.; conditions: pH lowered from about 7.5 to 3.5 for 15 minutes, raised back with 5M NaOH
# Protocol: The first 400 ml culture was maintained as an untreated control at a pH of about 7.5. […] The pH treatments were applied directly to the cultures, without previous concentration of the microalgae or subsequent dilution through inoculation into fresh culture media. All cultures were incubated with shaking at 100 rpm in 5% carbon dioxide and 25° C. […] 100 μM photon/m^2 s of light was also provided to create mixotrophic growth conditions. The cultures were monitored for 4 days (96 hours with dry weight samples taken at 0, 48, and 96 hours). Live bacteria count samples were taken at 0 and 48 hours, and quantified using aerobic colony forming units (CFU) obtained from plate counts utilizing Petrifilm available from 3M (St. Paul, Minn.). A bacteria to microalgae ratio was also quantified using guava flow cytometry.
smiles,measurement,setting,value
CC(=O)[O-].[Na+] [sodium acetate],Growth of Chlorella,[1]; 2.5 g/L sodium acetate,0.620 g/L day
same,Cell dry weights of treatments by Concentration of Sodium Acetate,"[1]; 2.5 g/L sodium acetate, 0 h",0.12 g/L
same,Cell dry weights of treatments by Concentration of Sodium Acetate,"[1]; 2.5 g/L sodium acetate, 24 h",0.23 g/L
same,Cell dry weights of treatments by Concentration of Sodium Acetate,"[1]; 2.5 g/L sodium acetate, 48 h",0.85 g/L
same,Cell dry weights of treatments by Concentration of Sodium Acetate,"[1]; 2.5 g/L sodium acetate, 72 h",1.10 g/L
same,Cell dry weights of treatments by Concentration of Sodium Acetate,"[1]; 2.5 g/L sodium acetate, 144 h",2.72 g/L
same,Cell dry weights of treatments by Concentration of Sodium Acetate,"[1]; 2.5 g/L sodium acetate, 168 h",3.23 g/L
same,Growth of Chlorella,[1]; 5 g/L sodium acetate,0.065 g/L day
same,Cell dry weights of treatments by Concentration of Sodium Acetate,"[1]; 5 g/L sodium acetate, 0 h",0.12 g/L
same,Cell dry weights of treatments by Concentration of Sodium Acetate,"[1]; 5 g/L sodium acetate, 24 h",0.19 g/L
same,Cell dry weights of treatments by Concentration of Sodium Acetate,"[1]; 5 g/L sodium acetate, 48 h",0.25 g/L
same,Cell dry weights of treatments by Concentration of Sodium Acetate,"[1]; 5 g/L sodium acetate, 72 h",0.55 g/L
same,Cell dry weights of treatments by Concentration of Sodium Acetate,"[1]; 5 g/L sodium acetate, 144 h",1.89 g/L
same,Cell dry weights of treatments by Concentration of Sodium Acetate,"[1]; 5 g/L sodium acetate, 168 h",2.41 g/L
same,Cell dry weights of treatments by Concentration of Sodium Acetate,"[1]; 7.5 g/L sodium acetate, 0 h",0.12 g/L
same,Cell dry weights of treatments by Concentration of Sodium Acetate,"[1]; 7.5 g/L sodium acetate, 24 h",0.17 g/L
same,Cell dry weights of treatments by Concentration of Sodium Acetate,"[1]; 7.5 g/L sodium acetate, 48 h",0.15 g/L
same,Cell dry weights of treatments by Concentration of Sodium Acetate,"[1]; 7.5 g/L sodium acetate, 72 h",0.13 g/L
same,Cell dry weights of treatments by Concentration of Sodium Acetate,"[1]; 7.5 g/L sodium acetate, 144 h",0.10 g/L
same,Cell dry weights of treatments by Concentration of Sodium Acetate,"[1]; 7.5 g/L sodium acetate, 168 h",0.07 g/L
same,Cell dry weights of treatments by Concentration of Sodium Acetate,"[1]; 10 g/L sodium acetate, 0 h",0.12 g/L
same,Cell dry weights of treatments by Concentration of Sodium Acetate,"[1]; 10 g/L sodium acetate, 24 h",0.13 g/L
same,Cell dry weights of treatments by Concentration of Sodium Acetate,"[1]; 10 g/L sodium acetate, 48 h",0.16 g/L
same,Cell dry weights of treatments by Concentration of Sodium Acetate,"[1]; 10 g/L sodium acetate, 72 h",0.11 g/L
same,Cell dry weights of treatments by Concentration of Sodium Acetate,"[1]; 10 g/L sodium acetate, 144 h",0.09 g/L
same,Cell dry weights of treatments by Concentration of Sodium Acetate,"[1]; 10 g/L sodium acetate, 168 h",0.00 g/L
same,Cell dry weights of treatments by Concentration of Sodium Acetate,"[1]; 20 g/L sodium acetate, 0 h",0.12 g/L
same,Cell dry weights of treatments by Concentration of Sodium Acetate,"[1]; 20 g/L sodium acetate, 24 h",0.16 g/L
same,Cell dry weights of treatments by Concentration of Sodium Acetate,"[1]; 20 g/L sodium acetate, 48 h",0.13 g/L
same,Cell dry weights of treatments by Concentration of Sodium Acetate,"[1]; 20 g/L sodium acetate, 72 h",0.12 g/L
same,Cell dry weights of treatments by Concentration of Sodium Acetate,"[1]; 20 g/L sodium acetate, 144 h",0.07 g/L
same,Cell dry weights of treatments by Concentration of Sodium Acetate,"[1]; 20 g/L sodium acetate, 168 h",0.00 g/L
same,Cell dry weights of treatments by Concentration of Sodium Acetate,"[1]; 30 g/L sodium acetate, 0 h",0.12 g/L
same,Cell dry weights of treatments by Concentration of Sodium Acetate,"[1]; 30 g/L sodium acetate, 24 h",0.14 g/L
same,Cell dry weights of treatments by Concentration of Sodium Acetate,"[1]; 30 g/L sodium acetate, 48 h",0.11 g/L
same,Cell dry weights of treatments by Concentration of Sodium Acetate,"[1]; 30 g/L sodium acetate, 72 h",0.09 g/L
same,Cell dry weights of treatments by Concentration of Sodium Acetate,"[1]; 30 g/L sodium acetate, 144 h",0.08 g/L
same,Cell dry weights of treatments by Concentration of Sodium Acetate,"[1]; 30 g/L sodium acetate, 168 h",0.00 g/L
same,Cell dry weights of treatments by Concentration of Sodium Acetate,"[1]; 40 g/L sodium acetate, 0 h",0.12 g/L
same,Cell dry weights of treatments by Concentration of Sodium Acetate,"[1]; 40 g/L sodium acetate, 24 h",0.11 g/L
same,Cell dry weights of treatments by Concentration of Sodium Acetate,"[1]; 40 g/L sodium acetate, 48 h",0.09 g/L
same,Cell dry weights of treatments by Concentration of Sodium Acetate,"[1]; 40 g/L sodium acetate, 72 h",0.10 g/L
same,Cell dry weights of treatments by Concentration of Sodium Acetate,"[1]; 40 g/L sodium acetate, 144 h",0.09 g/L
same,Cell dry weights of treatments by Concentration of Sodium Acetate,"[1]; 40 g/L sodium acetate, 168 h",0.00 g/L
same,tolerance limit for this strain of Chlorella,[1]; as restated in Example 10,7500 mg/L
same,Growth of Chlorella,[1]; concentrations of 7.5 g/L and higher,did not show any growth
same,acetate concentration tolerance for Chlorella,"[1]; mixotrophic flask culture, 7 days",approximately 7.5 g/L
same,live bacteria counts (below detection),"[2]; 2.5 g/L sodium acetate, pH 3.5 with HCl, after 60 minutes","< 1,000 CFU/ml"
same,live bacteria,"[2]; 2.5 g/L sodium acetate, pH 3.5 with HCl, after 180 minutes",no measurable live bacterium
same,Total live bacteria count,"[2]; 2.5 g/L sodium acetate, 0 min",5.00E+06 CFU
same,Total live bacteria count,"[2]; 2.5 g/L sodium acetate, 5 min",8.00E+04 CFU
same,Total live bacteria count,"[2]; 2.5 g/L sodium acetate, 15 min",4.00E+04 CFU
same,Total live bacteria count,"[2]; 2.5 g/L sodium acetate, 30 min",none detected
same,Total live bacteria count,"[2]; 2.5 g/L sodium acetate, 60 min",1.00E+03 CFU
same,Total live bacteria count,"[2]; 2.5 g/L sodium acetate, 180 min",1.00E+03 CFU
same,reduction in live bacteria,"[2]; sodium acetate present and treated with second acid, after 60 minutes",3.5 order of magnitude
CC(=O)C(=O)O [pyruvic acid],pKa,[3],about 2.5
CCCCCCCCCCCCCCCC(=O)O [palmitic acid],pKa,[3],about 4.7
O=C(O)CC(O)C(=O)O (centres unmarked) [malic acid],pKa,[3],about 3.4
"CC(=O)O [Acetic acid, acetic acid]",Cell Dry Weight,[4]; 0 h,0.80 ± 0.02 g/L
same,Cell Dry Weight,[4]; 48 h,0.78 ± 0.06 g/L
same,Cell Dry Weight,[4]; 96 h,0.89 ± 0.01 g/L
same,cell dry weight,[5]; 0 h,0.76 ± 0.00 g/L
same,cell dry weight,[5]; 48 h,1.73 ± 0.04 g/L
same,cell dry weight,[5]; 96 h,3.46 ± 0.09 g/L

# — patent US9416347B2, “Method of treating bacterial contamination in a microalgae culture with pH shock” (Heliae Development LLC, priority 2014, dated 2016)
